Data on 4 compounds can be found in patent publication US20240336654A1, “ANTIMICROBIAL PEPTIDOMIMETICS” (SPEXIS AG, priority 2021, published 2024).

Where a SMILES comes first, the peptide text is derived from it. Bridges are numbered along the chain shown (N, C = ends). [ ]: non-standard residue; d: D form. The star is where a group is joined. Val(Nα-amidino) = CC(C)[C@H](NC(=N)N)C(=O)*; Hyp = O=C(O)[C@@H]1C[C@@H](O)CN1; Cit = NC(=O)NCCC[C@H](N)C(=O)O; Pen = CC(C)(S)[C@H](N)C(=O)O; dDab = NCC[C@@H](N)C(=O)O; Orn = NCCC[C@H](N)C(=O)O; Dab = NCC[C@H](N)C(=O)O

Assay type in all cases: cell-based
Data set [1] relates to human red blood cells (hRBC). The note with it: red cells of human, 1 h, 200 μg/mL. An outline of the steps:
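Percent hemolysis derived from OD540 of supernatants relative to full lysis by 2.5% Triton X-100 (PBS baseline). Washed fresh human erythrocytes (20% v/v) were exposed to 200 μg/mL peptide for 1 h at 37 °C with shaking.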

The subject of data set [2] is Escherichia coli MCR-1 Af 45. Conditions: MCR-1 Af 45. An outline of the steps:
(§1)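 CLSI broth microdilution, slightly modified: cation-adjusted Mueller-Hinton II broth with about 5×10^5 CFU/mL from a 0.5 McFarland suspension, and two-fold serial peptide dilutions with Polysorbate 80 at 0.002% final. MIC (μg/mL) was the lowest concentration with no visible growth after 18-20 hours at 35° C.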

Data set [3] has as its system Escherichia coli ATCC 25922. Conditions: ATCC 25922. A digest of the protocol: as §1
Data set [4] has as its system Klebsiella pneumoniae SSI3010. The note with it: SSI3010. A digest of the protocol:
as §1

In the case of `CC[C@H](C)[C@H](NC(=O)[C@@H]1C[C@@H](O)CN1C(=O)[C@@H](NC(=N)N)C(C)C)C(=O)N[C@@H]1C(=O)N[C@@H](Cc2ccc(O)cc2)C(=O)N[C@@H](CCCNC(N)=O)C(=O)N[C@@H](CC(N)=O)C(=O)N[C@@H](CCCNC(=N)N)C(=O)N[C@@H](CCN)C(=O)N[C@@H]([C@@H](C)O)C(=O)N[C@H](CCN)C(=O)N[C@@H](CO)C(=O)N[C@@H](CCN)C(=O)N[C@@H](CCN)C(=O)N[C@H](C(=O)N[C@@H](Cc2ccc(O)cc2)C(=O)O)CSSC1(C)C` [Example 122, Gua-Val-Hyp-Ile-Pen-Tyr-Cit-Asn-Arg-Dab-Thr-^DDab-Ser-Dab-Dab-Cys-Tyr] ({Val(Nα-amidino)}-[Hyp]I[Pen]Y[Cit]NR[Dab]T[dDab]S[Dab][Dab]CY-OH; disulfide 3-14), in data set [1], the “Hemolysis at 0.2 g/L” value is given as less than 1%. For the same compound, in data set [2], the “Escherichia coli MCR-1 Af45 MIC” value amounted to 0.25 mg/L. For the same compound, the “Escherichia coli ATCC 25922 MIC” value in data set [3] was 0.125 mg/L. The “Klebsiella pneumoniae SSI3010 MIC” value in data set [4] stood at 0.25 mg/L.

With `CC[C@H](C)[C@H](NC(=O)[C@@H]1C[C@@H](O)CN1C(=O)[C@@H](NC(=N)N)C(C)C)C(=O)N[C@@H]1C(=O)N[C@@H](Cc2ccc(O)cc2)C(=O)N[C@@H]([C@@H](C)O)C(=O)N[C@@H](CC(N)=O)C(=O)N[C@@H](CCCNC(=N)N)C(=O)N[C@@H](CCN)C(=O)N[C@@H]([C@@H](C)O)C(=O)N[C@H](CCN)C(=O)N[C@@H](CCN)C(=O)N[C@@H](CCN)C(=O)N[C@@H](CCN)C(=O)N[C@H](C(=O)N[C@@H](Cc2ccc(O)cc2)C(=O)O)CSSC1(C)C` [Example 123, Gua-Val-Hyp-Ile-Pen-Tyr-Thr-Asn-Arg-Dab-Thr-^DDab-Dab-Dab-Dab-Cys-Tyr] ({Val(Nα-amidino)}-[Hyp]I[Pen]YTNR[Dab]T[dDab][Dab][Dab][Dab]CY-OH; disulfide 3-14), in data set [1], the “Hemolysis at 0.2 g/L” value is given as less than 1%. The “Escherichia coli MCR-1 Af45 MIC” value in data set [2] came out at 0.03125 mg/L. For the same compound, the “Escherichia coli ATCC 25922 MIC” value in data set [3] is 0.0625 mg/L. The “Klebsiella pneumoniae SSI3010 MIC” value in data set [4] amounted to 0.0625 mg/L.

In the case of `CC[C@H](C)[C@H](NC(=O)[C@@H]1C[C@@H](O)CN1C(=O)[C@@H](NC(=N)N)C(C)C)C(=O)N[C@@H]1C(=O)N[C@@H](Cc2ccc(O)cc2)C(=O)N[C@@H]([C@@H](C)O)C(=O)N[C@@H](CC(N)=O)C(=O)N[C@@H](CCCNC(=N)N)C(=O)N[C@@H](CCN)C(=O)N[C@@H]([C@@H](C)O)C(=O)N[C@H](CCN)C(=O)N[C@@H](CCCN)C(=O)N[C@@H](CCN)C(=O)N[C@@H](CCN)C(=O)N[C@H](C(=O)N[C@@H](Cc2ccc(O)cc2)C(=O)O)CSSC1(C)C` [Example 124, Gua-Val-Hyp-Ile-Pen-Tyr-Thr-Asn-Arg-Dab-Thr-^DDab-Orn-Dab-Dab-Cys-Tyr] ({Val(Nα-amidino)}-[Hyp]I[Pen]YTNR[Dab]T[dDab][Orn][Dab][Dab]CY-OH; disulfide 3-14), the “Hemolysis at 0.2 g/L” value in data set [1] is less than 1%. Moreover, the “Escherichia coli MCR-1 Af45 MIC” value in data set [2] came out at 0.03125 mg/L. Also, in data set [3], the “Escherichia coli ATCC 25922 MIC” value is 0.03125 mg/L. The “Klebsiella pneumoniae SSI3010 MIC” value in data set [4] is 0.125 mg/L.

As to `CC[C@H](C)[C@H](NC(=O)[C@@H]1C[C@@H](O)CN1C(=O)[C@@H](NC(=N)N)C(C)C)C(=O)N[C@@H]1C(=O)N[C@@H](Cc2ccc(O)cc2)C(=O)N[C@@H](CO)C(=O)N[C@@H](CC(N)=O)C(=O)N[C@@H](CCCNC(=N)N)C(=O)N[C@@H](CCN)C(=O)N[C@@H]([C@@H](C)O)C(=O)N[C@H](CCN)C(=O)N[C@@H](CCN)C(=O)N[C@@H](CCN)C(=O)N[C@@H](CCN)C(=O)N[C@H](C(=O)N[C@@H](Cc2ccc(O)cc2)C(=O)O)CSSC1(C)C` [Example 125, Gua-Val-Hyp-Ile-Pen-Tyr-Ser-Asn-Arg-Dab-Thr-^DDab-Dab-Dab-Dab-Cys-Tyr] ({Val(Nα-amidino)}-[Hyp]I[Pen]YSNR[Dab]T[dDab][Dab][Dab][Dab]CY-OH; disulfide 3-14), the “Hemolysis at 0.2 g/L” value in data set [1] is less than 1%. Further, the “Escherichia coli MCR-1 Af45 MIC” value in data set [2] came out at 0.03125 mg/L. The “Escherichia coli ATCC 25922 MIC” value in data set [3] worked out at 0.125 mg/L. Besides, the “Klebsiella pneumoniae SSI3010 MIC” value in data set [4] came to 0.125 mg/L.
